For 22 compounds, MIC results are on record in US9409905B2, “Antibacterial compounds and methods for use” (PTC THERAPEUTICS, INC., priority 2011, dated 2016).

Assay [1] has as its system Escherichia coli (E. coli) BAS849. Description: Antibacterial activity, microbroth dilution MIC (Table 1). In kind it is cell-based. The note with it: microbroth dilution, super sensitive Gram-negative E. coli BAS849, read-out: MIC, BAS849. In outline:
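Broth microdilution; endpoint = no macroscopic growth; value = lowest inhibiting concn, μg/mL.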
On the technique in general: Dilution methods test growth across graded concentrations, often in twofold steps.

Assay [2] relates to Staphylococcus aureus (S. aureus) 29213. The description is as above. In kind it is cell-based. The note with it: microbroth dilution, Gram-positive S. aureus 29213, read-out: MIC, 29213. In outline: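 Values are MICs (μg/mL): the smallest drug amount at which macroscopically visible bacterial growth is absent under assay conditions, from a microdilution method in broth.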
Assay [3] deals with E. coli 25922. Described as above. It is filed as cell-based, Escherichia coli. The note with it: Escherichia coli; microbroth dilution; control Gram-negative E. coli 25922 strain; read-out: MIC, 25922. The essentials:
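Using broth microdilution, MIC endpoints (μg/mL) mark where visible growth no longer appears; the panel spans sensitive and control Gram-negative strains plus a Gram-positive strain.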

Assay [4] relates to E. coli LZ3111. Kind of assay: Antibacterial activity, MIC, quinolone resistant strain (Table 2). In kind it is cell-based. The note with it: Escherichia coli, LZ3111, read-out: MIC LZ3111. The essentials: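 Lowest concentration giving no macroscopically visible growth was taken as the MIC (μg/mL) after microbroth dilution testing.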

The structures appear in SMILES notation. In brackets after ≈: the same amount, converted by molar mass. Some results are limits rather than exact numbers.

Take `CCc1cc(C(=O)O)c(=O)[nH]c1-c1cc(F)c2c(c1)cc(CN1CCCCC1)n2C` [Cpd 102, 5-ethyl-6-(7-fluoro-1-methyl-2-(piperidin-1-ylmethyl)-1H-indol-5-yl)-2-oxo-1,2-dihydropyridine-3-carboxylic acid]: the MIC is under 1 µg/mL in assay [1], 12.5 to 150 µg/mL (≈ 30.4 to 365 µM) in assay [2], 3.5 to 12.5 µg/mL (≈ 8.51 to 30.4 µM) in assay [3] and 12.5 to 150 µg/mL (≈ 30.4 to 365 µM) in assay [4].

For the compound `CCc1cc(C(=O)O)c(=O)[nH]c1-c1cc(C)c2c(c1)cc(CN1CCOCC1)n2C` [Cpd 103, 6-(1,7-dimethyl-2-(morpholinomethyl)-1H-indol-5-yl)-5-ethyl-2-oxo-1,2-dihydropyridine-3-carboxylic acid], the MIC in assay [1] was under 1 µg/mL; in assay [2], 12.5 to 150 µg/mL (≈ 30.5 to 366 µM); in assay [3], 12.5 to 150 µg/mL (≈ 30.5 to 366 µM); in assay [4] it was 12.5 to 150 µg/mL (≈ 30.5 to 366 µM).

Take `CCc1cc(C(=O)O)c(=O)[nH]c1-c1cc(C)c2c(c1)cc(CN(CC)CC)n2C` [Cpd 104, 6-(2-((diethylamino)methyl)-1,7-dimethyl-1H-indol-5-yl)-5-ethyl-2-oxo-1,2-dihydropyridine-3-carboxylic acid]: the MIC is under 1 µg/mL in assay [1], 12.5 to 150 µg/mL (≈ 31.6 to 379 µM) in assay [2], 3.5 to 12.5 µg/mL (≈ 8.85 to 31.6 µM) in assay [3] and 12.5 to 150 µg/mL (≈ 31.6 to 379 µM) in assay [4].

On to `CCc1cc(C(=O)O)c(=O)[nH]c1-c1cc(C)c2c(c1)cc(CN(C)C)n2C` [Cpd 105, 6-(2-((dimethylamino)methyl)-1,7-dimethyl-1H-indol-5-yl)-5-ethyl-2-oxo-1,2-dihydropyridine-3-carboxylic acid], for which the MIC was under 1 µg/mL in assay [1], 12.5 to 150 µg/mL (≈ 34 to 408 µM) in assay [2], 3.5 to 12.5 µg/mL (≈ 9.53 to 34 µM) in assay [3] and 12.5 to 150 µg/mL (≈ 34 to 408 µM) in assay [4].

`CCc1cc(C(=O)O)c(=O)[nH]c1-c1cc(F)c2c(c1)cc(CN(C)C)n2C` [Cpd 106, 6-(2-((dimethylamino)methyl)-7-fluoro-1-methyl-1H-indol-5-yl)-5-ethyl-2-oxo-1,2-dihydropyridine-3-carboxylic acid]: the MIC in assay [1] is under 1 µg/mL; in assay [2], 12.5 to 150 µg/mL (≈ 33.7 to 404 µM); in assay [3], 1 to 3.5 µg/mL (≈ 2.69 to 9.42 µM); in assay [4], 12.5 to 150 µg/mL (≈ 33.7 to 404 µM).

As to `CCc1cc(C(=O)O)c(=O)[nH]c1-c1cc2cc(CN3CCCC3)n(C)c2cc1OC` [Cpd 107, 5-ethyl-6-(6-methoxy-1-methyl-2-(pyrrolidin-1-ylmethyl)-1H-indol-5-yl)-2-oxo-1,2-dihydropyridine-3-carboxylic acid], the MIC in assay [1], in assay [2], in assay [3] and in assay [4] was 12.5 to 150 µg/mL (≈ 30.5 to 366 µM) each time.

For `CCc1cc(C(=O)O)c(=O)[nH]c1-c1cc2cc(CN3CCOCC3)n(C)c2cc1OC` [Cpd 108, 5-ethyl-6-(6-methoxy-1-methyl-2-(morpholinomethyl)-1H-indol-5-yl)-2-oxo-1,2-dihydropyridine-3-carboxylic acid], the MIC in assay [1], in assay [2], in assay [3] and in assay [4] was 12.5 to 150 µg/mL (≈ 29.4 to 353 µM) in each case.

As for `CCc1c(-c2ccc3c(c2)cc(CN2CCC2)n3C)[nH]c(=O)c(C(=O)O)c1C(=O)O` [Cpd 109, 6-(2-(azetidin-1-ylmethyl)-1-methyl-1H-indol-5-yl)-5-ethyl-2-oxo-1,2-dihydropyridine-3,4-dicarboxylic acid], the MIC in assay [1], in assay [2], in assay [3] and in assay [4] was 12.5 to 150 µg/mL (≈ 30.5 to 366 µM) in each case.

Take `CCc1c(-c2ccc3c(c2)cc(CN2CCCC2)n3C)[nH]c(=O)c(C(=O)O)c1C(=O)O` [Cpd 110, 5-ethyl-6-(1-methyl-2-(pyrrolidin-1-ylmethyl)-1H-indol-5-yl)-2-oxo-1,2-dihydropyridine-3,4-dicarboxylic acid]: the MIC in assay [1], in assay [2], in assay [3] and in assay [4] was 12.5 to 150 µg/mL (≈ 29.5 to 354 µM) each time.

For the compound `CCc1c(-c2ccc3c(c2)cc(CN(C)C)n3C)[nH]c(=O)c(C(=O)O)c1C(=O)O` [Cpd 111, 6-(2-((dimethylamino)methyl)-1-methyl-1H-indol-5-yl)-5-ethyl-2-oxo-1,2-dihydropyridine-3,4-dicarboxylic acid], the minimal inhibitory concentration (MIC) in assay [1], in assay [2], in assay [3] and in assay [4] was 12.5 to 150 µg/mL (≈ 31.5 to 377 µM) throughout.

Turning to `CCc1cc(C(=O)O)c(=O)[nH]c1-c1ccc2c(c1)cc(CNC)n2C` [Cpd 112, 5-ethyl-6-(1-methyl-2-((methylamino)methyl)-1H-indol-5-yl)-2-oxo-1,2-dihydropyridine-3-carboxylic acid], the MIC in assay [1] was under 1 µg/mL; in assay [2], 12.5 to 150 µg/mL (≈ 36.8 to 442 µM); in assay [3] it was under 1 µg/mL; in assay [4], 12.5 to 150 µg/mL (≈ 36.8 to 442 µM).

On to `CCc1cc(C(=O)O)c(=O)[nH]c1-c1ccc2c(c1)cc(CNC(C)(C)C)n2C` [Cpd 113, 6-(2-((tert-butylamino)methyl)-1-methyl-1H-indol-5-yl)-5-ethyl-2-oxo-1,2-dihydropyridine-3-carboxylic acid], for which the MIC was under 1 µg/mL in assay [1], 12.5 to 150 µg/mL (≈ 32.8 to 393 µM) in assay [2], under 1 µg/mL in assay [3] and 12.5 to 150 µg/mL (≈ 32.8 to 393 µM) in assay [4].

As for `CCc1cc(C(=O)O)c(=O)[nH]c1-c1ccc2c(c1)cc(CNCc1ccccc1)n2C` [Cpd 114, 6-(2-((benzylamino)methyl)-1-methyl-1H-indol-5-yl)-5-ethyl-2-oxo-1,2-dihydropyridine-3-carboxylic acid], the MIC in assay [1] is under 1 µg/mL; in assay [2] it was 3.5 to 12.5 µg/mL (≈ 8.42 to 30.1 µM); in assay [3], under 1 µg/mL; in assay [4], 12.5 to 150 µg/mL (≈ 30.1 to 361 µM).

On to `CCc1cc(C(=O)O)c(=O)[nH]c1-c1ccc2c(c1)cc(CNC(C)(C)c1ccccc1)n2C` [Cpd 115, 5-ethyl-6-(1-methyl-2-((2-phenylpropan-2-ylamino)methyl)-1H-indol-5-yl)-2-oxo-1,2-dihydropyridine-3-carboxylic acid], for which the minimum inhibitory concentration (MIC) in assay [1] is under 1 µg/mL; in assay [2], 1 to 3.5 µg/mL (≈ 2.25 to 7.89 µM); in assay [3], under 1 µg/mL; in assay [4], 12.5 to 150 µg/mL (≈ 28.2 to 338 µM).

As to `CCc1cc(C(=O)O)c(=O)[nH]c1-c1ccc2c(c1)cc(CN[C@H](C)c1ccccc1)n2C` [Cpd 116, (R)-5-ethyl-6-(1-methyl-2-((1-phenylethylamino)methyl)-1H-indol-5-yl)-2-oxo-1,2-dihydropyridine-3-carboxylic acid], the MIC was under 1 µg/mL in assay [1], 1 to 3.5 µg/mL (≈ 2.33 to 8.15 µM) in assay [2], under 1 µg/mL in assay [3] and 12.5 to 150 µg/mL (≈ 29.1 to 349 µM) in assay [4].

With `CCc1cc(C(=O)O)c(=O)[nH]c1-c1ccc2c(c1)cc(CN[C@@H](C)c1ccccc1)n2C` [Cpd 117, (S)-5-ethyl-6-(1-methyl-2-((1-phenylethylamino)methyl)-1H-indol-5-yl)-2-oxo-1,2-dihydropyridine-3-carboxylic acid], the MIC was under 1 µg/mL in assay [1], 12.5 to 150 µg/mL (≈ 29.1 to 349 µM) in assay [2], under 1 µg/mL in assay [3] and 12.5 to 150 µg/mL (≈ 29.1 to 349 µM) in assay [4].

`CCc1cc(C(=O)O)c(=O)[nH]c1-c1ccc2c(c1)cc(CN[C@H](CC)c1ccccc1)n2C` [Cpd 118, (R)-5-ethyl-6-(1-methyl-2-((1-phenylpropylamino)methyl)-1H-indol-5-yl)-2-oxo-1,2-dihydropyridine-3-carboxylic acid]: the MIC in assay [1] was under 1 µg/mL; in assay [2], 1 to 3.5 µg/mL (≈ 2.25 to 7.89 µM); in assay [3], 1 to 3.5 µg/mL (≈ 2.25 to 7.89 µM); in assay [4] it was 12.5 to 150 µg/mL (≈ 28.2 to 338 µM).

For the compound `CCc1cc(C(=O)O)c(=O)[nH]c1-c1ccc2c(c1)cc(CN[C@@H](CC)c1ccccc1)n2C` [Cpd 119, (S)-5-ethyl-6-(1-methyl-2-((1-phenylpropylamino)methyl)-1H-indol-5-yl)-2-oxo-1,2-dihydropyridine-3-carboxylic acid], the MIC in assay [1] was under 1 µg/mL; in assay [2] it was 3.5 to 12.5 µg/mL (≈ 7.89 to 28.2 µM); in assay [3], 1 to 3.5 µg/mL (≈ 2.25 to 7.89 µM); in assay [4], 12.5 to 150 µg/mL (≈ 28.2 to 338 µM).

Turning to `CCc1cc(C(=O)O)c(=O)[nH]c1-c1ccc2c(c1)cc(CNCc1ccccn1)n2C` [Cpd 120, 5-ethyl-6-(1-methyl-2-((pyridin-2-ylmethylamino)methyl)-1H-indol-5-yl)-2-oxo-1,2-dihydropyridine-3-carboxylic acid], the MIC in assay [1] was under 1 µg/mL; in assay [2], 3.5 to 12.5 µg/mL (≈ 8.4 to 30 µM); in assay [3] it was under 1 µg/mL; in assay [4], 12.5 to 150 µg/mL (≈ 30 to 360 µM).

For `CCc1cc(C(=O)O)c(=O)[nH]c1-c1ccc2c(c1)cc(CN1CC[C@H](N)C1)n2C` [Cpd 126, (S)-6-(2-((3-aminopyrrolidin-1-yl)methyl)-1-methyl-1H-indol-5-yl)-5-ethyl-2-oxo-1,2-dihydropyridine-3-carboxylic acid], the MIC in assay [1] was in the range of 3.5 to 12.5 µg/mL (≈ 8.87 to 31.7 µM); in assay [2], 12.5 to 150 µg/mL (≈ 31.7 to 380 µM); in assay [3], 12.5 to 150 µg/mL (≈ 31.7 to 380 µM); in assay [4], 12.5 to 150 µg/mL (≈ 31.7 to 380 µM).

With `CCc1cc(C(=O)O)c(=O)[nH]c1-c1ccc2c(c1)cc(CN1CCC(NC)C1)n2C` (stereo not shown) [Cpd 127, 5-ethyl-6-(1-methyl-2-((3-(methylamino)pyrrolidin-1-yl)methyl)-1H-indol-5-yl)-2-oxo-1,2-dihydropyridine-3-carboxylic acid], the MIC in assay [1] fell in the range of 1 to 3.5 µg/mL (≈ 2.45 to 8.57 µM); in assay [2] it was 12.5 to 150 µg/mL (≈ 30.6 to 367 µM); in assay [3], 12.5 to 150 µg/mL (≈ 30.6 to 367 µM); in assay [4], 12.5 to 150 µg/mL (≈ 30.6 to 367 µM).

Turning to `CCc1cc(C(=O)O)c(=O)[nH]c1-c1ccc2c(c1)cc(CN1CCC(N(C)C)C1)n2C` (stereo not shown) [Cpd 128, 6-(2-((3-(dimethylamino)pyrrolidin-1-yl)methyl)-1-methyl-1H-indol-5-yl)-5-ethyl-2-oxo-1,2-dihydropyridine-3-carboxylic acid], the MIC in assay [1] was under 1 µg/mL; in assay [2] it was 12.5 to 150 µg/mL (≈ 29.6 to 355 µM); in assay [3] it was 1 to 3.5 µg/mL (≈ 2.37 to 8.28 µM); in assay [4] it was 12.5 to 150 µg/mL (≈ 29.6 to 355 µM).

A word on the MIC: it is the smallest concentration in the dilution series that meets the test's criterion for growth inhibition.
